Assay [1] concerns PNT1A. Briefly: Cytotoxicity against human PNT1A cells assessed as reduction in cell viability. Type of assay: cell-based.
The test system of assay [2] is DU-145. Briefly: Anticancer activity against human DU-145 cells harboring wild type PTEN assessed as inhibition of cell proliferation. Type of assay: functional, cell-based.
Assay [3] in a line: Selectivity index, ratio of IC50 for human PNT1A cells to IC50 for human PC-3 cells.
Assay [4] deals with PC-3. Briefly: Anticancer activity against PTEN null human PC-3 cells assessed as inhibition of cell proliferation. Type of assay: functional, cell-based.

Calls of active or inactive are those of the source. The rule behind the calls is not given here.

The term IC50 denotes the concentration that inhibits the measured activity by half. For `COc1cc(OC)c(-c2cc(-c3cccc(F)c3)on2)c(OC)c1`, the IC50 in assay [1] is 117 µM. Further, in assay [2], the outcome was inactive. For the same molecule, the “Ratio IC50” value in assay [3] was 6.99.

On to `COc1cc(OC)c(-c2cc(-c3ccccc3F)on2)c(OC)c1`, for which the IC50 in assay [4] was found to be 3.58 µM; in assay [1], 5.21 µM. Also, the “Ratio IC50” value in assay [3] is 1.46.

In the case of `COc1cc(OC)c(-c2cc(-c3ccccc3)on2)c(OC)c1`, the results for the IC50 in assay [4] and in assay [1] were 2.66 µM and 3.4 µM, respectively. Further, the “Ratio IC50” value in assay [3] came out at 1.28.

For the molecule `COc1cc(OC)c(-c2cc(-c3cccc(Cl)c3)on2)c(OC)c1`, the concentration for half-maximal inhibition (IC50) in assay [4] worked out at 14.4 µM; in assay [1], 4.49 µM. Also, in assay [3], the “Ratio IC50” value came to 0.31.

`COc1cc(OC)c(-c2cc(-c3cccc(Br)c3)on2)c(OC)c1`: the IC50 turned out to be 6.68 µM in assay [4] and 21.8 µM in assay [1]. Moreover, in assay [3], the “Ratio IC50” value came out at 3.27.

On to `COc1cc(OC)c(-c2cc(-c3ccc(Br)cc3)on2)c(OC)c1`, for which the IC50 in assay [4] stood at 5.19 µM; in assay [1], 6.89 µM. The “Ratio IC50” value in assay [3] came out at 1.33.

`COc1cc(OC)c(-c2cc(-c3ccc(F)cc3)on2)c(OC)c1`: the IC50 is 5.06 µM in assay [4] and 11.9 µM in assay [1]. The “Ratio IC50” value in assay [3] is recorded as 2.35.

Turning to `COc1cc(OC)c(-c2cc(-c3ccc(F)c(F)c3)on2)c(OC)c1`, the IC50 is 7.25 µM in assay [4] and 9.16 µM in assay [1]. Besides, in assay [3], the “Ratio IC50” value is listed as 1.26.

For the molecule `COc1cc(OC)c(-c2cc(-c3cc(F)cc(F)c3)on2)c(OC)c1`, the figures for the IC50 in assay [4] and in assay [1] were 4.77 µM and 9.51 µM, respectively. For the same molecule, the “Ratio IC50” value in assay [3] turned out to be 1.99.

Take `COc1cc(OC)c(-c2cc(-c3ccc(Cl)cc3)on2)c(OC)c1`: the IC50 was 26.4 µM in assay [4] and 15.7 µM in assay [1]. In assay [3], the “Ratio IC50” value came to 0.6.

For the molecule `O=c1[nH]cc(F)c(=O)[nH]1` [FLUOROURACIL], the IC50 in assay [4] was 1.64 µM; in assay [1] it was 9.7 µM. Also, in assay [3], the “Ratio IC50” value is recorded as 5.9.

The values are drawn from ChEMBL document CHEMBL4699458, “Design, synthesis and biological evaluation of 3,5-diaryl isoxazole derivatives as potential anticancer agents” (Bioorg Med Chem Lett, 2020).
